According to ChEMBL document CHEMBL4368940, “Development of a novel NURR1/NOT agonist from hit to lead and candidate for the potential treatment of Parkinson's disease” (Bioorg Med Chem Lett, 2019):

Legend:
[1] = target: Nuclear receptor subfamily 4 group A member 2 (Mus musculus) (UniProt Q06219); assay: (§1) Agonist activity at Nurr1 in mouse N2A cells harboring NBRE by luciferase reporter gene assay; assay type: cell-based
[2] = target: Nuclear receptor subfamily 4 group A member 2 (Mus musculus, UniProt Q06219); assay: as §1; assay type: cell-based
Sequence of Nuclear receptor subfamily 4 group A member 2 (Mus musculus, UniProt Q06219) (Q06219 whole entry, the tested form may be a part): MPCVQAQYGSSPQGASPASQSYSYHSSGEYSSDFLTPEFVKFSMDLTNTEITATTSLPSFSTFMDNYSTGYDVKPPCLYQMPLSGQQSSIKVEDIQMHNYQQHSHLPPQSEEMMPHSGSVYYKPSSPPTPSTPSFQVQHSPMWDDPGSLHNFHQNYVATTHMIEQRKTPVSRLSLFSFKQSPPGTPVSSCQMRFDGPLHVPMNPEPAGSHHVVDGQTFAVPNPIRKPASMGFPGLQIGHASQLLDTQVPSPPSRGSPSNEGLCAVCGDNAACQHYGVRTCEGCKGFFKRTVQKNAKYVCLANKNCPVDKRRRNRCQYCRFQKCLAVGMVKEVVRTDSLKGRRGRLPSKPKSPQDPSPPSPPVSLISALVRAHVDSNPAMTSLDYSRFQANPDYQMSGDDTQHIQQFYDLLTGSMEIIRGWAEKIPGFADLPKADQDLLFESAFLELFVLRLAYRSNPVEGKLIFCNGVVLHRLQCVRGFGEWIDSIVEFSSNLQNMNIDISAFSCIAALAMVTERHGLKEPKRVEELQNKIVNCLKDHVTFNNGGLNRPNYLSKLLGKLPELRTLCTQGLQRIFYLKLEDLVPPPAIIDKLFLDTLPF

[3] = target: Nuclear receptor subfamily 4 group A member 2 (Homo sapiens, UniProt P43354); assay: Agonist activity at full-length Gal4-fused NOT (unknown origin) expressed in CHO cells by luciferase reporter gene assay; assay type: cell-based
Sequence of Nuclear receptor subfamily 4 group A member 2 (Homo sapiens, UniProt P43354) (P43354 whole entry, the tested form may be a part): as the sequence (Q06219 whole entry, the tested form may be a part) above, with S131T, S134G, D354E counted along it

[4] = Clearance in human hepatocytes assessed per million cells; assay type: ADME, cell-based, Hepatocyte
[5] = target: Nuclear receptor subfamily 4 group A member 2 (Rattus norvegicus) (UniProt Q07917); assay: Agonist activity at Nurr1 in rat mesencephalic primary neurons assessed as increase in tyrosine hydroxylase expression at 3 uM
Sequence of Nuclear receptor subfamily 4 group A member 2 (Rattus norvegicus) (Q07917 whole entry): as the sequence (Q06219 whole entry, the tested form may be a part) above, with S134G, P182R counted along it

[6] = Solubility of the compound by HPLC analysis; assay type: physicochemical
[7] = Stability in human plasma; assay type: ADME, cell-free
[8] = Stability in mouse plasma; assay type: ADME, cell-free
[9] = Lipophilicity, log D of the compound; assay type: physicochemical; conditions: octanol/water
[10] = Dissociation constant, pKa of the compound; assay type: physicochemical
[11] = Apparent permeability in human Caco2 cells; assay type: ADME, cell-based; conditions: caco-2
[12] = Drug metabolism in mouse liver microsomes; assay type: ADME, Microsome; conditions: read-out: Drug metabolism
[13] = Drug metabolism in human liver microsomes; assay type: ADME, Microsome; conditions: read-out: Drug metabolism
Cytochrome P450 3A4 = Cytochrome P450 3A4 (Homo sapiens, UniProt P08684); assay: Inhibition of CYP3A4 (unknown origin); assay type: ADME
Sequence of Cytochrome P450 3A4 (P08684 whole entry): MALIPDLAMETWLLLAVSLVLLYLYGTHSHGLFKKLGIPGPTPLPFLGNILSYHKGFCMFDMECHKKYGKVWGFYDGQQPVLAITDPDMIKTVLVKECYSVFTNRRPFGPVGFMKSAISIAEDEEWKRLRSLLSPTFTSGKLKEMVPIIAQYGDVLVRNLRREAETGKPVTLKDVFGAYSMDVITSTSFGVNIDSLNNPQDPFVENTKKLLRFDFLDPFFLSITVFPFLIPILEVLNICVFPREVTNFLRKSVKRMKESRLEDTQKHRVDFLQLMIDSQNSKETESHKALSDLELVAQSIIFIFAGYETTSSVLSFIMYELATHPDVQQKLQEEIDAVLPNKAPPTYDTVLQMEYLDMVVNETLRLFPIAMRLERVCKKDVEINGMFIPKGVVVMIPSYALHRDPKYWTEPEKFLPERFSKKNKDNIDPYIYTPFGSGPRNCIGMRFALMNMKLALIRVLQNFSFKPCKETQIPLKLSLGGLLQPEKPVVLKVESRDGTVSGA

Cytochrome P450 2D6 = Cytochrome P450 2D6 (Homo sapiens, UniProt P10635); assay: Inhibition of CYP2D6 (unknown origin); assay type: ADME
Sequence of Cytochrome P450 2D6 (P10635 whole entry): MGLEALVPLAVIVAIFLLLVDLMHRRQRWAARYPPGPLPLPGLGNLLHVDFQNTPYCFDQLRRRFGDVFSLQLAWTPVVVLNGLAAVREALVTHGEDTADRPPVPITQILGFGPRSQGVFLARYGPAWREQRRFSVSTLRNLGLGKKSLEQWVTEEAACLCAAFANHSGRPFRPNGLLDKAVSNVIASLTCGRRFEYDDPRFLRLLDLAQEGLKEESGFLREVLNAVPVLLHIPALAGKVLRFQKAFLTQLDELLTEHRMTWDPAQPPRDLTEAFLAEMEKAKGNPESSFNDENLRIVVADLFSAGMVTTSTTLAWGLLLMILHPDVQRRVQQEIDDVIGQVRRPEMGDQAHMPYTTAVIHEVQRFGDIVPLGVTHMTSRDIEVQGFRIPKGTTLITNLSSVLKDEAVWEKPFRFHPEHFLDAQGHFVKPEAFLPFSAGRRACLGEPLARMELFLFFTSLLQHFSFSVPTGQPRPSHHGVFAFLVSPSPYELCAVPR

Cytochrome P450 2C9 = Cytochrome P450 2C9 (Homo sapiens, UniProt P11712); assay: Inhibition of CYP2C9 (unknown origin); assay type: ADME
Sequence of Cytochrome P450 2C9 (P11712 whole entry): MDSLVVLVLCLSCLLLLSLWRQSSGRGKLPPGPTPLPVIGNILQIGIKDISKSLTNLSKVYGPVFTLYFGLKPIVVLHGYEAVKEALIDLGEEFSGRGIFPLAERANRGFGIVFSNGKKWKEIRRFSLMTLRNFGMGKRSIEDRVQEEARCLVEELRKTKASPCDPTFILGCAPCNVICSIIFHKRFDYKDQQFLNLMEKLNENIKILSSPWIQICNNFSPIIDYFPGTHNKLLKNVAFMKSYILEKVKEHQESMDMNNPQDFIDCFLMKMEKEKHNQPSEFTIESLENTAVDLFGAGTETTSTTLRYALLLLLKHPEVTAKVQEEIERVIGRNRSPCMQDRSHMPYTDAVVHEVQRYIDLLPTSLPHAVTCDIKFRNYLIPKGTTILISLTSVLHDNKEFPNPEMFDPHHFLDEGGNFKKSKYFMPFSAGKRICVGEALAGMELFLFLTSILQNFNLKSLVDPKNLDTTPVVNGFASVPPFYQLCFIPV

CYP450 = CYP450 (Homo sapiens, UniProt P04798+P05177+P05181+P08684+P10632+P10635+P11509+P11712+P13584+P20813+P20815+P20853+P24462+P24903+P33260+P33261+P51589+P78329+P98187+Q02928+Q08477+Q16678+Q16696+Q5TCH4+Q6VVX0+Q7Z449+Q8TAV3+Q96SQ9+Q9HB55); assay: Induction of CYP450 (unknown origin); assay type: ADME, protein assay
[14] = target: Voltage-gated inwardly rectifying potassium channel KCNH2 (Homo sapiens, UniProt Q12809); assay: Activation of human ERG
Sequence of Voltage-gated inwardly rectifying potassium channel KCNH2 (Q12809 whole entry): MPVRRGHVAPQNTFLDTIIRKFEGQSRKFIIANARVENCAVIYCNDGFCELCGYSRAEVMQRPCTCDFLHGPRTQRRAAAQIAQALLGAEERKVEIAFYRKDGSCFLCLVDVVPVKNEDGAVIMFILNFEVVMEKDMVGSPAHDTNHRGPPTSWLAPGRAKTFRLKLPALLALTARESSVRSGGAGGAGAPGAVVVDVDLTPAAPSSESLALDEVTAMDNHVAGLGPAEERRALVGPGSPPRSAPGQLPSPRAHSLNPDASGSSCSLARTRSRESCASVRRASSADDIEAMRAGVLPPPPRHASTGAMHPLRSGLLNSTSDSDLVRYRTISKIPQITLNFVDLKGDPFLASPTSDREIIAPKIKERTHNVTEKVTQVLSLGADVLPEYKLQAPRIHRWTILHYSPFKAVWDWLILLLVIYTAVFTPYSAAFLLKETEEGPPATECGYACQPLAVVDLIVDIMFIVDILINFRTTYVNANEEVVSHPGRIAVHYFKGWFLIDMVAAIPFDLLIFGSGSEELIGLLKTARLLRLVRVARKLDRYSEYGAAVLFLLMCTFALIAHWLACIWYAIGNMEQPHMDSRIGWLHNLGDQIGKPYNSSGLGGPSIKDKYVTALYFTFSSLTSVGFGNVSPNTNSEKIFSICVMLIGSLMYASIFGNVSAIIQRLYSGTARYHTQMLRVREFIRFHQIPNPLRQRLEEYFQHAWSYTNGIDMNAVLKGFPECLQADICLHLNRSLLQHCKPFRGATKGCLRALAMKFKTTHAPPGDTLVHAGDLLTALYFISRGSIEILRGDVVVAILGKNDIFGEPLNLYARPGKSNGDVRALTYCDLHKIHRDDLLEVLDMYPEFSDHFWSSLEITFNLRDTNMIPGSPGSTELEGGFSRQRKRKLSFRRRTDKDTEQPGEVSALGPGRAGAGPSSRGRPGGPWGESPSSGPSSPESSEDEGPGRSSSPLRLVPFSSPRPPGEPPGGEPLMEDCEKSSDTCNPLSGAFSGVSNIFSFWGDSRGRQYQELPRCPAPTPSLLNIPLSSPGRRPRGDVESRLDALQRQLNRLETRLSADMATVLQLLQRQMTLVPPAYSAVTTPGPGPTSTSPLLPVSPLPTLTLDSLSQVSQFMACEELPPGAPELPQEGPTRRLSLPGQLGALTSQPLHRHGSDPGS

[15] = Genotoxicity in Salmonella typhimurium by Ames test; assay type: toxicity; conditions: salmonella enterica subsp. enterica serovar typhimurium
[16] = Drug metabolism in mouse liver microsomes assessed as amide hydrolysis by measuring 6-(pyridin-2-yl)imidazo[1,2-a]pyridine-2-carboxylic acid formation; assay type: ADME, Microsome
[17] = Drug metabolism in mouse liver microsomes assessed as amide hydrolysis by measuring aniline formation; assay type: ADME, Microsome
[18] = Drug level in mouse liver microsomes treated with N-phenyl-6-(pyridin-2-yl)imidazo[1,2-a]pyridine-2-carboxamide assessed as metabolite formation; assay type: ADME, Microsome
hERG = hERG (Homo sapiens, UniProt Q12809); assay: Inhibition of human ERG at 10 uM
Sequence of hERG (Q12809 whole entry): as above

Sequence of Nuclear receptor subfamily 4 group A member 2 (Mus musculus) (Q06219 whole entry): as the sequence (Q06219 whole entry, the tested form may be a part) above

| Structure (SMILES) | Emax [1] | EC50 [2] | EC50 ([3]; read-out: EC50) | other results |
| --- | --- | --- | --- | --- |
| O=C(Nc1ccsc1)c1cn2cc(-c3ccccn3)ccc2n1 | 85% | 1 nM | > 1000 nM | – |
| CCC(C)C(O)c1cccc(-c2ccc3nc(-c4ccc(Cl)cc4)cn3c2)c1 (configuration not stated) | – | – | > 3000 nM | – |
| OCc1cccc(-c2ccc3cc(-c4ccc(Cl)cc4)cn3c2)c1 | – | – | – | EC50 ([3]; cho): Not Active |
| CCC(O)c1cccc(-c2ccc3nc(-c4ccc(Cl)cc4)cn3c2)c1 (configuration not stated) | – | – | > 1000 nM | – |
| OCc1cccc(-c2ccc3nc(-c4ccc(Cl)cc4)cn3n2)c1 | – | – | – | EC50 ([3]; cho): Not Active |
| CC(O)(CO)c1cccc(-c2ccc3nc(-c4ccc(Cl)cc4)cn3c2)c1 (configuration not stated) | – | – | > 1000 nM | – |
| O=C(Nc1nncs1)c1cn2cc(-c3ccccn3)ccc2n1 | 70% | 67.6 nM | > 1000 nM | – |
| O=C(O)c1cn2cc(-c3ccccn3)ccc2n1 | – | – | – | Drug metabolism [18]: Metabolite_Detected |
| CC(C)(O)c1c(F)ccc(-c2ccc3nc(-c4ccc(Cl)cc4)cn3c2)c1F | – | – | > 1000 nM | inhibition at 10 µM (hERG): 70% |
| NC(=O)c1cccc(-c2ccc3nc(-c4ccc(Cl)cc4)cn3c2)c1 | – | – | – | Emax [3]: 210% |
| CCCCCC(O)c1cccc(-c2ccc3nc(-c4ccc(Cl)cc4)cn3c2)c1 (configuration not stated) | – | – | > 3000 nM | – |
| N#Cc1cccc(-c2ccc3nc(-c4ccc(Cl)cc4)cn3c2)c1 | – | – | > 3000 nM | – |

Now from value to molecule, other results behind:

| Emax [1] | EC50 [2] | EC50 ([3]; read-out: EC50) | Structure (SMILES) | other results |
| --- | --- | --- | --- | --- |
| 104% | 1 nM | > 1000 nM | O=C(Nc1ccccc1F)c1cn2cc(-c3ccccn3)ccc2n1 | – |
| 52% | 292 nM | > 1000 nM | N#Cc1ccccc1NC(=O)c1cn2cc(-c3ccccn3)ccc2n1 | – |
| – | – | > 1000 nM | OC1(c2cccc(-c3ccc4nc(-c5ccc(Cl)cc5)cn4c3)c2)CCOCC1 | – |
| 62% | 20 nM | > 1000 nM | O=C(Nc1ccon1)c1cn2cc(-c3ccccn3)ccc2n1 | – |
| 87% | 2 nM | > 1000 nM | O=C(Nc1ccccn1)c1cn2cc(-c3ccccn3)ccc2n1 | – |
| – | – | > 3000 nM | Clc1ccc(-c2cn3cc(-c4cccc(CN5CCOCC5)c4)ccc3n2)cc1 | – |
| – | – | 99 nM | CC(O)c1cccc(-c2ccc3nc(-c4ccc(Cl)cc4)cn3c2)c1 (racemic) | – |
| – | – | 14 nM | OCc1cccc(-c2ccc3nc(-c4ccc(Cl)cc4)cn3c2)c1F | CLH [4]: 0.188 mL/h |
| – | – | > 3000 nM | COCc1cccc(-c2ccc3nc(-c4ccc(Cl)cc4)cn3c2)c1 | – |
| 204% | 1 nM | 140 nM | O=C(Nc1ccccc1)c1cn2cc(-c3ccccn3)ccc2n1 | Emax [3]: 203%; Activity [5]: 174 to 216%; solubility [6]: < 1 µM; Stability [7]: Stable; Stability [8]: Unstable; logD [9]: 3.65; pKa [10]: 3.6; permeability [11]: Permeable; metabolised [12]: 21%; metabolised [13]: 20%; CLH [4]: 0.128 mL/h; IC50 (Cytochrome P450 3A4): > 10 µM; IC50 (Cytochrome P450 2D6): > 10 µM; IC50 (Cytochrome P450 2C9): 8.6 µM; Emax (CYP450): < 20%; EC50 [14]: > 10 µM; Activity [15]: Non-Toxic; Drug metabolism [16]: Metabolite_Detected; Drug metabolism [17]: Metabolite_Detected |
| 103% | 1 nM | > 1000 nM | O=C(Nc1cccc(F)c1)c1cn2cc(-c3ccccn3)ccc2n1 | – |
| 86% | 0.6 nM | 25 nM | O=C(Nc1cccc(F)n1)c1cn2cc(-c3ccccn3)ccc2n1 | Emax [3]: 138% |
| – | – | > 3000 nM | Clc1ccc(-c2cn3cc(-c4cccc(CN5CCCC5)c4)ccc3n2)cc1 | – |
| – | – | > 3000 nM | CCN(CC)C(=O)c1cccc(-c2ccc3nc(-c4ccc(Cl)cc4)cn3c2)c1 | – |
| – | – | > 3000 nM | Cc1cccc(-c2ccc3nc(-c4ccc(Cl)cc4)cn3c2)c1 | – |
